Test results as given in patent US9284345B2 (priority 2007, dated 2016).
Like-named read-outs stand apart in the source and are kept apart here.

What was measured:
[1] = target: T1, Human Androgen Receptor (Homo sapiens, UniProt P10275); type: binding
T1 construct: expressed in transfected cells; host or cells: HEK-293 cells stably transfected with the pCMVneo-hAR plasmid (G-418 selection); cytosol used
T1 sequence (P10275 1-920): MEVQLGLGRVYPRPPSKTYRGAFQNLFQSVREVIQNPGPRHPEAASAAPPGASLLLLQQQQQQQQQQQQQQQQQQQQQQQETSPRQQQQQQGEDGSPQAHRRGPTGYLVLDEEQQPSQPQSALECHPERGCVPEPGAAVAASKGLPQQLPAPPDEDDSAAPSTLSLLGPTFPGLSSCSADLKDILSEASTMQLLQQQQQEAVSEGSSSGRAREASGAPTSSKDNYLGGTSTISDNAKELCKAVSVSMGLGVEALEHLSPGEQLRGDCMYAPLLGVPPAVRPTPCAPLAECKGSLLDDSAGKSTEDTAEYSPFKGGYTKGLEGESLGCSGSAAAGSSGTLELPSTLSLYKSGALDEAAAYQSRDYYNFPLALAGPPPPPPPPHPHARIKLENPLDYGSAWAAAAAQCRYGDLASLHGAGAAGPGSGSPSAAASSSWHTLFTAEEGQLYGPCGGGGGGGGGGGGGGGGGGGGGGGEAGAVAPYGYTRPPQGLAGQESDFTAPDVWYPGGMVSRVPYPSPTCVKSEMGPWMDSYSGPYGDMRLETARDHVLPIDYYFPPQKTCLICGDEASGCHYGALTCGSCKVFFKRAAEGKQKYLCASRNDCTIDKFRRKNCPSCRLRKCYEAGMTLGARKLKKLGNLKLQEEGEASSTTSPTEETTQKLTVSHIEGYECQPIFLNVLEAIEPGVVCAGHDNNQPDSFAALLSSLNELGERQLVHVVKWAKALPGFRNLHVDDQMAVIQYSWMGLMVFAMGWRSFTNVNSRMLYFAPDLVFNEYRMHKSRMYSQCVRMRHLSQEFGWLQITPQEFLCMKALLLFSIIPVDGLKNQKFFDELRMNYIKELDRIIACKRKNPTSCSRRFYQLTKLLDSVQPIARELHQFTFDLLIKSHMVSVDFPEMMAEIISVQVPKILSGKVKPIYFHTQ

[2] = test system: Intact Rat; assay: In vivo activity in intact rat (organ and muscle weight); conditions: rat, in vivo
[3] = test system: Immature Rat CX; conditions: for In Vivo Agonist % Change vs CX (DHT = +100%) SV / In Vivo Agonist % Change vs CX (DHT = +100%) VP: po
[4] = test system: Shionogi mouse mammary carcinoma cells; assay: cells; type: cell-based; conditions: for % of inh of DHT at 10^−7 M (Basal = 100%): 0.0003 µM; for Ki: read-out: Shionogi cells Antiandrogenic activity Ki
[5] = test system: Immature Rat CX + DHT; assay: animal or person; type: in vivo; conditions: po; for change in vivo at 0.1 mg / change in vivo at 0.5 mg: Rattus norvegicus, 168 h
[6] = read-out: In Vivo Antagonist % Change vs DHT (CX = −100%) SV
[7] = read-out: In Vivo Antagonist % Change vs DHT (CX = −100%) VP

SMILES | Human Androgen Receptor Binding RBA (%) R1881 = 100% [1] [%] | In Vivo Agonist % Change vs CX (DHT = +100%) SV [3] | In Vivo Agonist % Change vs CX (DHT = +100%) VP [3] | Shionogi cells Antiandrogenic activity Ki OH-Flu/Ki compound [4] | Ki [4] [nM] | change in vivo at 0.1 mg [5, 6] [%] | change in vivo at 0.1 mg [5, 7] [%] | also measured
CC[C@H]1C[C@@]2(C)C(CC[C@@]2(O)Cc2ccncc2)C2CCc3c(ccc(C#N)c3F)C21 (some centres unmarked) [EM-8986] | 508 |  |  |  |  |  |  | In Vivo Intact Rat % change vs Intact CONT (Intact CONT = +100%; CX CONT = 0%) Bulbo [2]: +241 ± 27%; In Vivo Intact Rat % change vs Intact CONT (Intact CONT = +100%; CX CONT = 0%) SZ [2]: +98 ± 7%; In Vivo Intact Rat % change vs Intact CONT (Intact CONT = +100%; CX CONT = 0%) VP [2]: +76 ± 11%; In Vivo Agonist Rat CX % change vs CX (DHT CONT = +100%) Bulbo [3]: +149 ± 13%; In Vivo Agonist Rat CX % change vs CX (DHT CONT = +100%) SV [3]: +24 ± 3%; In Vivo Agonist Rat CX % change vs CX (DHT CONT = +100%) VP [3]: +35 ± 3%; % of stim of basal at 10^−7M (% over basal) [4]: +21%; % of stim of basal at 10^−7 M (DHT = 100%) [4]: +9%; % of inh of DHT at 10^−7 M (Basal = 100%) [4]: +44%; In Vivo Anti-A Rat CX + DHT % change vs DHT (CX CONT = −100%) Bulbo ([5]; rat, in vivo): +74 ± 13%; In Vivo Anti-A Rat CX + DHT % change vs DHT (CX CONT = −100%) SV ([5]; rat, in vivo): −25 ± 4%; In Vivo Anti-A Rat CX + DHT % change vs DHT (CX CONT = −100%) VP ([5]; rat, in vivo): −24 ± 3%
C[C@H]1C[C@@]2(C)C(CC[C@@]2(O)Cc2ccncc2F)C2CCc3c(ccc(C#N)c3F)C21 (some centres unmarked) [EM-6594] | 292 |  |  |  |  |  |  | In Vivo Agonist Rat CX % change vs CX (DHT CONT = +100%) Bulbo [3]: +97 ± 19%; In Vivo Agonist Rat CX % change vs CX (DHT CONT = +100%) SV [3]: +13 ± 2%; In Vivo Agonist Rat CX % change vs CX (DHT CONT = +100%) VP [3]: +28 ± 7%; % of stim of basal at 10^−7M (% over basal) [4]: +224%; % of stim of basal at 10^−7 M (DHT = 100%) [4]: +63%; % of inh of DHT at 10^−7 M (Basal = 100%) [4]: +37%; In Vivo Anti-A Rat CX + DHT % change vs DHT (CX CONT = −100%) SV ([5]; rat, in vivo): [−69 ± 4] %; In Vivo Anti-A Rat CX + DHT % change vs DHT (CX CONT = −100%) VP ([5]; rat, in vivo): [−56 ± 4] %
C[C@]12CCC3c4ccc(C#N)c(Cl)c4CCC3C1CC[C@@]2(O)Cc1ccncc1F (some centres unmarked) [EM-5988] | 97 ± 19 | +10 ± 0% | +10 ± 0% | mixed |  |  |  | Shionogi cells Antiandrogenic activity Ki (nM) [4]: mixed; In Vivo Antagonist % Change vs DHT (CX = −100%) SV ([5]; rat, in vivo): [−83 ± 3] %; In Vivo Antagonist % Change vs DHT (CX = −100%) VP ([5]; rat, in vivo): [−71 ± 5] %
C[C@]12CCC3c4ccc(C#N)c(F)c4CCC3C1CC[C@@]2(O)Cc1ccncc1Cl (some centres unmarked) [EM-8632] | 47 |  |  | 2.1 | 4.1 |  |  | In Vivo Antagonist % Change vs DHT (CX = −100%) SV ([5]; rat, in vivo): −74 ± 3%; In Vivo Antagonist % Change vs DHT (CX = −100%) VP ([5]; rat, in vivo): −43 ± 6%
C[C@]12CCC3c4ccc(C#N)c(F)c4CCC3C1CC[C@@]2(O)Cc1ccncc1F (some centres unmarked) [EM-8455] | 9.1 | +1 ± 2% | 0% | 3.1 | 1.9 | -85 ± 4 | -49 ± 3 | 
C[C@]12CCC3c4ccc(C#N)cc4CCC3C1CC[C@@]2(O)Cc1ccc(-c2ccncc2)cc1 (some centres unmarked) [EM-4240] | 110 | +3 ± 1% | +12 ± 3% | 1.4 | 24 | -58 ± 2 | -46 ± 9 | change in vivo at 0.5 mg [5, 6]: -85%; change in vivo at 0.5 mg [5, 7]: -52%
C[C@]12CCC3c4ccc(C#N)c(Cl)c4CCC3C1CC[C@@]2(O)Cc1cc[n+]([O-])cc1F (some centres unmarked) [EM-5987] | 6.8 ± 1.7 |  |  |  | 0.35 ± 0.15 |  |  | change in vivo at 0.5 mg [5, 6]: -83%; change in vivo at 0.5 mg [5, 7]: -69%
C[C@]12CCC3c4ccc(C#N)c(F)c4CCC3C1CC[C@@]2(O)Cc1cc[n+]([O-])cc1Cl (some centres unmarked) [EM-8633] | 2.3 | 1% | 0% |  | 0.8 | -83 | -42 ± 5 | 
Cc1c(C#N)ccc2c1CCC1C2CCC2(C)C1CCCC2(O)Cc1cc[n+]([O-])cc1 (centres unmarked) [EM-9140] | 1.4 | 0% | 0% | 11 | 1.2 |  |  | 
